Read-outs that look alike come from different tables or passages of the source.
Key:
[1] = test system: guinea pigs; assay: Protective activity in subacute bronchitis induced by inhalation of citric acid; assay type: in vivo; details: 7.5% citric acid inhalation, oral route, equimolar doses
[2] = test system: rats; assay: Protective action on chronic bronchitis induced by inhalation of SO2; assay type: in vivo; details: SO2 aerosol, equimolar dosages
Experimental: Bronchopulmonary lesions were induced in the animals by aerosolization of SO2. The animals were then treated for two weeks with TBPG in the dosage of 100 and 400 mg/kg by the oral route, rectal route and by inhalation.

[3] = test system: rabbits; assay: Secretory activity in rabbits (bronchial secretion); assay type: in vivo; details: with respect to the control animals
From the text: This activity has been determined using the method described by E. M. Boyd and C. F. Boyd, modified by P. C. Braga, et al described in Bronchial Hypersecretion, 1973. This activity has been determined every hour for a period of four hours by measuring the amount of bronchial secretion derived from the laryngo-tracheal organs and from the tracheo-bronchial organs of rabbits.

[4] = test system: rats; assay: Bronchosecretolithic activity in rats (sodium fluorescine method); assay type: in vivo; details: 135 mg/kg intraperitoneally (equimolar)
Experimental: The secretolithic activity of TBPG has been determined in comparison to α-mercaptopropionylglycine by administering 300 mg/kg of the substance intraperitonally and comparing with 135 mg/kg of α-mercaptopropionylglycine administered also intraperitoneally. The doses are equimolar. The method is based on the use of sodium fluorescine described by H. M. Mawatari (Experimental Studies on the Expectorant Action of Several Drugs, Kogoshima Daigakeu Igakeu Zasshi 27, 561, 1976).

[5] = test system: guinea pigs; assay: Antibronchospastic activity, histamine aerosol; assay type: in vivo; details: equimolar doses
From the text: Histamine administered in the form of an aerosol has caused in guinea pigs symptoms of broncho-spasm accompanied by convulsions, irreversible collapse and death.

[6] = test system: rats; assay: Protective activity of the liver in the intoxication caused by CCl4 (BSF elimination); assay type: in vivo; details: rats intoxicated with CCl4; 90 and 180 mg/kg orally (equimolar)
Experimental: The animals, that is rats, were intoxicated with CCl4 for a period of seven days. They were treated during the same days and for a subsequent period of seven days with TBPG in the dose of 200 and 400 mg/kg orally and with α-mercaptopropionylglycine in the dose of 90 and 180 mg/kg orally. On the fifteenth day, the rats have been treated with BSF in the amount of 10 mg/kg intravenously.

[7] = test system: rats; assay: Regenerative action in partial hepatectomy; assay type: in vivo; details: partial hepatectomy, equimolar doses
[8] = test system: rats; assay: Action on the period of sleep induced by barbiturates; assay type: in vivo; details: rats intoxicated with CCl4; equimolar doses
Experimental: The activity of TBPG administered for two days in the dose of 200 and 400 mg/kg orally, has been determined on the basis of the reduction of the period of sleep induced by Nembutal on rats intoxicated with CCl4.

[9] = assay type: in vivo; details: rats, oral route, equimolar doses
[10] = Stability at room temperature; assay type: physicochemical; details: closed containers, 36 months
From the text: Five different samples of TBPG and α-mercaptopropionyl glycine have been preserved at room temperature in closed containers for a period of 36 months. At the end of the storage period, the following properties have been determined: […]

[11] = Isothermic (accelerated) stability according to the method of Garret, TLC; assay type: physicochemical
Experimental: The tests of accelerated stability have been carried out with the substance in powder form, that is in glass vials, hermetically closed with a plastic screw cap and also with the substance dissolved in water, that is 500 mg in 10 cc in a transparent glass container of 20 cc capacity closed with a plastic screw cap.
The production of impurities, if any, due to degradation of the substance, has been determined by means of TLC.

[12] = Stability to light; assay type: physicochemical; details: powder form, light of a 60 watt lamp, three months
[13] = Stability to moisture; assay type: physicochemical; details: open vials, 90% relative humidity, a month
Experimental: Samples of TBPG and MPG have been maintained in open vials at room temperature under conditions of 90% relative humidity and at 50° C. always with 90% relative humidity. After a month of exposure, the following observations have been made.

[14] = Stability in solution (acidic, alkaline, oxidizing medium); assay type: physicochemical; details: 3% hydrogen peroxide, two months
[15] = Stability in reducing medium (SO2); assay type: physicochemical; details: 25 mg/ml, sodium bisulfite calculated as SO2, refluxed three hours
Experimental: In the presence of SO2 --solutions containing 25 mg/ml of TBPG and MPG respectively in the presence of sodium bisulfite calculated as SO2 are warmed and refluxed for a period of three hours.

[16] = solid state as a dry powder and in solution, even at low relative humidity and room temperature; cited from earlier work
[17] = Powder, 60°, read-out: Chromatographic Impurities
[18] = Powder, 70°, read-out: Chromatographic Impurities
[19] = Powder, 80°, read-out: Chromatographic Impurities
[20] = Solution (500 mg in 10 cc water), 60°, read-out: Chromatographic Impurities
[21] = Solution (500 mg in 10 cc water), 70°, read-out: Chromatographic Impurities
[22] = Solution (500 mg in 10 cc water), 80°, read-out: Chromatographic Impurities

CC(S)C(=O)NCC(=O)O (stereo not drawn) [α-mercaptopropionylglycine, 2-mercaptopropionylglycine]
efficacy compared with TBPG [1]: essentially overlapping
protection of the bronchi and lungs, compared with TBPG [2]: Analogous results
laryngo-tracheal secretion [3]: P 0.05 with respect to the control animals
tracheo-bronchial secretion [3]: n.s.
bronchosecretolithic activity [4]: 15.2%
antibronchospastic efficacy compared with TBPG [5]: efficacy comparable
elimination of BSF, compared with TBPG [6]: comparable
regeneration of the hepatic tissue, compared with TBPG [7]: comparable
reduction of the period of sleep induced by Nembutal, compared with TBPG [8]: essentially comparable
concentration in the kidney [9]: high concentrations in the kidney
distribution in the organs [9]: sufficiently homogenous
organoleptic properties (taste, odor) [10]: undergo substantial change
Chromatographic Impurities ([11]; Powder, 60°, 320 hours): Traces
degraded at 960 h [11, 17]: 1%
degraded at 1280 h [11, 17]: 1%
degraded at 1600 h [11, 17]: 2%
Chromatographic Impurities ([11]; Powder, 70°, 120 hours): Traces
degraded at 240 h [11, 18]: 1%
degraded at 480 h [11, 18]: 2%
degraded at 45 h [11, 19]: 1%
degraded at 90 h [11, 19]: 1%
degraded at 180 h [11, 19]: 2%
Chromatographic Impurities ([11]; Solution (500 mg in 10 cc water), 60°, 0 hours): Absent
degraded at 320 h ([11]; Solution (500 mg in 10 cc water), 60°, 320 hours, read-out: Chromatographic Impurities): 0.5%
degraded at 640 h ([11]; Solution (500 mg in 10 cc water), 60°, 640 hours, read-out: Chromatographic Impurities): 0.6%
degraded at 960 h [11, 20]: 1%
degraded at 1280 h [11, 20]: 1.5%
degraded at 1600 h [11, 20]: 2.5%
degraded at 180 h [11, 21]: 1%
degraded at 240 h [11, 21]: 2%
degraded at 480 h [11, 21]: 2.5%
degraded at 45 h [11, 22]: 1%
degraded at 90 h [11, 22]: 2.5%
degraded at 120 h ([11]; Solution (500 mg in 10 cc water), 80°, 120 hours, read-out: Chromatographic Impurities): 1.5%
stability to light [12]: strong yellow color, due to degradation accompanied by an unpleasant odor and taste
stability to moisture ([13]; 50° C.): marked change in color, odor and taste accompanied by degradation products
stability to moisture ([13]; room temperature (t.a.)): significant change of organoleptic properties
stability in oxidizing medium [14]: the change is greater
stability in reducing medium [15]: undergoes substantial physico-chemical and organoleptic change
stability on storage [16]: low stability
